Measurements from patent US20180015100A1, “COMBINATION PRODUCTS FOR THE TREATMENT OF BACTERIAL INFECTIONS AND METHODS OF PRODUCING OR DOSING OF SAME” (priority 2016, published 2018).
In brackets after ≈: the same amount, converted by molar mass. Where two headings read alike, the source gives them in different places. Marks after values point to notes of the source that are not given here.

Legend:
[1] = test system: Klebsiella oxytoca isolates; test: MIC of cephalosporins alone or with clavulanate/tazobactam; assay type: cell-based; conditions: clavulanate 2:1, tazobactam 4 μg/mL
[2] = test system: Enterobacter aerogenes isolates; test: as above; assay type: cell-based; conditions: Klebsiella aerogenes, clavulanate 2:1, tazobactam 4 μg/mL
[3] = test system: Klebsiella pneumoniae isolates; test: as above; assay type: cell-based; conditions: clavulanate 2:1, tazobactam 4 μg/mL
[4] = cited from earlier work; for fCmax / bioavailability: po
[5] = test system: Escherichia coli isolates; test: MIC of cephalosporins alone or with clavulanate/tazobactam; assay type: cell-based; conditions: clavulanate 2:1, tazobactam 4 μg/mL
[6] = test system: Enterobacter cloacae isolates; test: as above; assay type: cell-based; conditions: clavulanate 2:1, tazobactam 4 μg/mL
CTX-M-15 Strain = test: MIC of cephalosporins without and with CLV (Table 16); assay type: cell-based; conditions: for MIC: read-out: MIC CTX-M-15 Strain − CLV; for MIC CTX-M-15 Strain + CLV: with CLV
AECO001 = test: MIC of cephalosporins (Table 16); assay type: cell-based
[7] = cited from earlier work
CTX-M-15 = CTX-M-15 (Escherichia coli, UniProt Q9EXV5); test: Competition assay with nitrocefin (IC50); assay type: biochemical
Chain of CTX-M-15 (Q9EXV5 entry or part of it): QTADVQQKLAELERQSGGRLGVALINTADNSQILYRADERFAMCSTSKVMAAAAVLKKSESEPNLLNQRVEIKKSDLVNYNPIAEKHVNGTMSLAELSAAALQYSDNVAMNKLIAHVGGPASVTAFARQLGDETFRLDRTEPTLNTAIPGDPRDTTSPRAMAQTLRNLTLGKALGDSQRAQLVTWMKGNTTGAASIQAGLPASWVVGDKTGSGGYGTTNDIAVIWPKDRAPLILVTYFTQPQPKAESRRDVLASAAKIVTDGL

[8] = test system: Citrobacter freundii isolates; test: MIC of cephalosporins alone or with clavulanate/tazobactam; assay type: cell-based; conditions: clavulanate 2:1, tazobactam 4 μg/mL
[9] = test system: C=CC1=C(C(=O)O)N2C(=O)[C@@H](NC(=O)/C(=N\OCC(=O)O)c3csc(N)n3)[C@H]2SC1; test: purified protein, by the assay type; conditions: other: CTX-M-15-mediated hydrolysis; pH 7.0
[10] = test system: COCC1=C(C(=O)O)N2C(=O)[C@@H](NC(=O)/C(=N\OC)c3csc(N)n3)[C@H]2SC1; test: purified protein, by the assay type; conditions: other: CTX-M-15-mediated hydrolysis; pH 7.0
[11] = test system: 385 Escherichia coli and 126 Klebsiella pneumoniae isolates; test: MIC, MIC50 and MIC90 by reference broth microdilution against 511 UTI/bloodstream isolates (USA and Europe 2014-2015); assay type: cell-based; conditions: 511 isolates
[12] = test system: E. coli clinical isolate expressing the ESBL CTX-M-15; assay type: in vivo, mouse; conditions: 4 mg/kg, q4 hr
[13] = test system: Escherichia coli isolates with an ESBL-phenotype; test: In vitro MIC90 of a panel of approved antibiotics, US surveillance program; assay type: cell-based; conditions: Escherichia coli; E. coli (n = 124), ESBL-phenotype; read-out: MIC90
[14] = test system: ESBL Klebsiella pneumoniae isolates; test: Killing kinetics (time-kill); assay type: cell-based; conditions: 8X MIC
[15] = test system: ESBL Escherichia coli isolates; test: MIC against isolates analyzed in time-kill experiments; assay type: cell-based
[16] = test system: ESBL Escherichia coli isolates; test: Killing kinetics (time-kill); assay type: cell-based; conditions: 8X MIC
[17] = test system: ESBL Klebsiella pneumoniae isolates; test: MIC against isolates analyzed in time-kill experiments; assay type: cell-based

## COCC1=C(C(=O)O)N2C(=O)[C@@H](NC(=O)/C(=N\OC)c3csc(N)n3)[C@H]2SC1 [Cefpodoxime, cefpodoxime]
[1]; AKOX1005 (SHV-2, TEM-1, DHA-1)
  MIC: 32 µg/mL
[1]; AKOX1009 (CTX-M-15)
  MIC: > 64 µg/mL
[2]; AEAE1027 (CTX-M-14)
  MIC: > 64 µg/mL
[2]; AEAE1029 (CTX-M-15)
  MIC: > 64 µg/mL
[3]; AKPN1159 (SHV-12)
  MIC: 64 µg/mL
[3]; AKPN1161 (SHV-7)
  MIC: 16 µg/mL
[3]; AKPN1162 (CTX-M-15, SHV-12)
  MIC: > 64 µg/mL
[3]; AKPN1166 (CTX-M-14, SHV-12)
  MIC: > 64 µg/mL
[3]; AKPN1167 (SHV-2)
  MIC: > 64 µg/mL
[4]; in vivo, 100 mg
  Mean Cmax: 1400 ng/mL
  Mean fCmax: 1.1 µg/mL
[4]; in vivo, 200 mg
  Mean Cmax: 2300 ng/mL
  Mean fCmax: 1.8 µg/mL
[4]; in vivo, 400 mg
  Mean Cmax: 3900 ng/mL
[4]; in vivo, 800 mg
  half-life: 2.9 h
  fCmax: approximately 5.4 μg/mL
[4]; in vivo
  bioavailability: 40-90%
  Elimination half-life: 2.1 to 2.8 h
  Mean unbound plasma concentration following one elimination half-life: 1.55 (400 mg) μg/mL
[5]; AECO001 (no ESBL)
  MIC: 0.5 µg/mL
[5]; AECO1078 (CTX-M-15)
  MIC: > 64 µg/mL
[5]; AECO1147 (CTX-M-15)
  MIC: > 64 µg/mL
[5]; AECO1157 (CTX-M-15, TEM-OSBL)
  MIC: > 64 µg/mL
[5]; AECO1159 (CTX-M-15)
  MIC: > 64 µg/mL
[5]; AECO1169 (CTX-M-1, TEM-OSBL)
  MIC: > 64 µg/mL
[5]; AECO1172 (CTX-M-14)
  MIC: > 64 µg/mL
[6]; AECL1065 (CTX-M-15)
  MIC: > 64 µg/mL
[6]; AECL1067 (CTX-M-3)
  MIC: > 64 µg/mL
CTX-M-15 Strain
  MIC: > 64 µg/mL
  MIC CTX-M-15 Strain + CLV: 4 µg/mL
AECO001
  MIC: 0.5 µg/mL
[7]; plasma
  Protein binding (% bound): 21-29 (plasma) % bound
[7]; serum
  Protein binding (% bound): 22-33 (serum); % bound
CTX-M-15
  IC50: 24 µM
[8]; ACFR1034 (CTX-M-15, TEM-OSBL)
  MIC: > 64 µg/mL
[8]; ACFR1035 (CTX-M-3, TEM-OSBL)
  MIC: > 64 µg/mL

## CO/N=C(\C(=O)N[C@@H]1C(=O)N2C(C(=O)O)=C(COC(C)=O)CS[C@H]12)c1csc(N)n1 [Cefotaxime, cefotaxime]
AECO001
  MIC: 0.125 µg/mL
CTX-M-15
  IC50: 31 µM

## C=CC1=C(C(=O)O)N2C(=O)[C@@H](NC(=O)/C(=N\OCC(=O)O)c3csc(N)n3)[C@H]2SC1 [Cefixime, cefixime]
[1]; AKOX1005 (SHV-2, TEM-1, DHA-1)
  MIC: 16 µg/mL
[1]; AKOX1009 (CTX-M-15)
  MIC: > 64 µg/mL
[2]; AEAE1027 (CTX-M-14)
  MIC: 8 µg/mL
[2]; AEAE1029 (CTX-M-15)
  MIC: > 64 µg/mL
[3]; AKPN1159 (SHV-12)
  MIC: 32 µg/mL
[3]; AKPN1161 (SHV-7)
  MIC: 32 µg/mL
[3]; AKPN1162 (CTX-M-15, SHV-12)
  MIC: > 64 µg/mL
[3]; AKPN1166 (CTX-M-14, SHV-12)
  MIC: > 64 µg/mL
[3]; AKPN1167 (SHV-2)
  MIC: 8 µg/mL
[4]; for highest plasma concentration from previous row
  Mean unbound plasma concentration following one elimination half-life: 0.65 (400 mg) μg/mL
[4]; in vivo, 200 mg
  Mean Cmax: 2000 ng/mL
  Mean fCmax: 0.7 µg/mL
[4]; in vivo, 400 mg
  Mean Cmax: 3700 ng/mL
  Mean fCmax: 1.3 µg/mL
[4]; in vivo
  bioavailability: 40-90%
  fCmax: 2.7 µg/mL
[4]; plasma
  Elimination half-life: 3-4^b h
[5]; AECO001 (no ESBL)
  MIC: 1 µg/mL
[5]; AECO1078 (CTX-M-15)
  MIC: > 64 µg/mL
[5]; AECO1157 (CTX-M-15, TEM-OSBL)
  MIC: > 64 µg/mL
[5]; AECO1159 (CTX-M-15)
  MIC: > 64 µg/mL
[5]; AECO1169 (CTX-M-1, TEM-OSBL)
  MIC: 16 µg/mL
[5]; AECO1172 (CTX-M-14)
  MIC: 16 µg/mL
[6]; AECL1065 (CTX-M-15)
  MIC: > 64 µg/mL
[6]; AECL1067 (CTX-M-3)
  MIC: > 64 µg/mL
CTX-M-15 Strain
  MIC: > 64 µg/mL
  MIC CTX-M-15 Strain + CLV: 2 µg/mL
AECO001
  MIC: 1 µg/mL
[7]; serum
  Protein binding (% bound): 65 (serum) % bound
CTX-M-15
  IC50: 20 µM
[8]; ACFR1034 (CTX-M-15, TEM-OSBL)
  MIC: > 64 µg/mL
[8]; ACFR1035 (CTX-M-3, TEM-OSBL)
  MIC: > 64 µg/mL

## CTX-M-15 (Escherichia coli)
[9]
  Km: 14 (11-18) μM
  kcat: 2 s⁻¹
  kcat/Km: 140000 M⁻¹ s⁻¹
[10]
  Km: 13 (10-16) μM
  kcat: 50 s⁻¹
  kcat/Km: 3.8e+06 M⁻¹ s⁻¹

## C[C@@H](O)[C@H]1C(=O)N2C(C(=O)O)=C(S[C@@H]3CN[C@H](C(=O)N(C)C)C3)[C@H](C)[C@H]12 [Meropenem, meropenem]
[11]
  MIC50: 0.03 µg/mL (≈ 0.0782 µM)
[11]; EUCAST 2016 criteria
  EUCAST % I: 3.3%
[11]; read-out: MIC90
  MIC90: 0.12 µg/mL (≈ 0.313 µM)
[12]
  bacterial CFU, bladder: 3.75 log10 CFU
  bacterial CFU, kidneys: 3.11 log10 CFU
  bacterial CFU, urine: 3.25 log10 CFU
[13]
  MIC90: 0.03 µg/mL (≈ 0.0782 µM)
[14]; AKPN1159, 2 h
  Change in Log10 CFU/mL From Inoculum (0 hr): −2.64 Log10 CFU/mL
[14]; AKPN1159, 4 h
  Change in Log10 CFU/mL From Inoculum (0 hr): −4.16 Log10 CFU/mL
[14]; AKPN1159, 6 h
  Change in Log10 CFU/mL From Inoculum (0 hr): −4.73 Log10 CFU/mL
[14]; AKPN1159, 24 h
  Change in Log10 CFU/mL From Inoculum (0 hr): −6.33 Log10 CFU/mL
[14]; AKPN1162, 2 h
  Change in Log10 CFU/mL From Inoculum (0 hr): −3.01 Log10 CFU/mL
[14]; AKPN1162, 4 h
  Change in Log10 CFU/mL From Inoculum (0 hr): −3.58 Log10 CFU/mL
[14]; AKPN1162, 6 h
  Change in Log10 CFU/mL From Inoculum (0 hr): −3.66 Log10 CFU/mL
[14]; AKPN1162, 24 h
  Change in Log10 CFU/mL From Inoculum (0 hr): −6.48 Log10 CFU/mL
[15]; AECO1156 (CTXM-15, TEM-OSBL)
  MIC: 0.03 µg/mL (≈ 0.0782 µM)
[15]; AECO1157 (CTXM-15, TEM-OSBL)
  MIC: 0.03 µg/mL (≈ 0.0782 µM)
[15]; AECO1162 (CTX-M-14)
  MIC: 0.03 µg/mL (≈ 0.0782 µM)
[15]; AECO1166 (SHV-12)
  MIC: 0.016 µg/mL (≈ 0.0417 µM)
[16]; AECO1156, 2 h
  Change in Log10 CFU/mL From Inoculum (0 hr): −3.41 Log10 CFU/mL
[16]; AECO1156, 4 h
  Change in Log10 CFU/mL From Inoculum (0 hr): −4.08 Log10 CFU/mL
[16]; AECO1156, 6 h
  Change in Log10 CFU/mL From Inoculum (0 hr): −5.69 Log10 CFU/mL
[16]; AECO1156, 24 h
  Change in Log10 CFU/mL From Inoculum (0 hr): −5.69 Log10 CFU/mL
[16]; AECO1157, 2 h
  Change in Log10 CFU/mL From Inoculum (0 hr): −3.49 Log10 CFU/mL
[16]; AECO1157, 4 h
  Change in Log10 CFU/mL From Inoculum (0 hr): −4.98 Log10 CFU/mL
[16]; AECO1157, 6 h
  Change in Log10 CFU/mL From Inoculum (0 hr): −4.38 Log10 CFU/mL
[16]; AECO1157, 24 h
  Change in Log10 CFU/mL From Inoculum (0 hr): −5.98 Log10 CFU/mL
[16]; AECO1162, 2 h
  Change in Log10 CFU/mL From Inoculum (0 hr): −2.91 Log10 CFU/mL
[16]; AECO1162, 4 h
  Change in Log10 CFU/mL From Inoculum (0 hr): −3.42 Log10 CFU/mL
[16]; AECO1162, 6 h
  Change in Log10 CFU/mL From Inoculum (0 hr): −4.39 Log10 CFU/mL
[16]; AECO1162, 24 h
  Change in Log10 CFU/mL From Inoculum (0 hr): −6.08 Log10 CFU/mL
[16]; AECO1166, 2 h
  Change in Log10 CFU/mL From Inoculum (0 hr): −4.17 Log10 CFU/mL
[16]; AECO1166, 4 h
  Change in Log10 CFU/mL From Inoculum (0 hr): −6.08 Log10 CFU/mL
[16]; AECO1166, 6 h
  Change in Log10 CFU/mL From Inoculum (0 hr): −6.08 Log10 CFU/mL
[16]; AECO1166, 24 h
  Change in Log10 CFU/mL From Inoculum (0 hr): −6.08 Log10 CFU/mL
[17]; AKP1162 (SHV-12, CTX-M-15)
  MIC: 0.06 µg/mL (≈ 0.156 µM)
[17]; AKPN1159 (SHV-12)
  MIC: 0.03 µg/mL (≈ 0.0782 µM)
